Experimental data: patent US9532983B2, “Benzofuran compounds, compositions, kits and/or methods thereof” (Savannah State University, priority 2013, dated 2017)
Entries after “also recorded” stand apart in the source; their conditions may differ. Like-named read-outs stand apart in the source and are kept apart here.

Experiments:
σ2 receptor = molecular target: T1, σ2 receptor (Rattus norvegicus, UniProt Q5U3Y7); test: Secondary binding assay, Ki determination at σ2 receptor ([3H]DTG, PC12 cell homogenates); conditions: read-out: σ-2 (Ki)
T1 construct: PC12 cell homogenates for σ2 receptors were added to the wells; endogenous in cells; host or cells: PC12 cell homogenate
T1 sequence (Q5U3Y7 1-176): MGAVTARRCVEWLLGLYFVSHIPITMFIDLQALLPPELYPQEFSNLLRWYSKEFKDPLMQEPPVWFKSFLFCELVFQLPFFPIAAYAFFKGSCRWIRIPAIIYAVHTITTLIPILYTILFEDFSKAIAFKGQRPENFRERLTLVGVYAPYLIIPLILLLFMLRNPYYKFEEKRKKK
Procedure: Secondary binding assays, Ki determinations were performed by measuring the inhibition of radioligand binding by various concentrations of test and reference compound. […] [^3H]Pentazocine (3 nM) was used as the radioligand for σ1 receptors and [^3H]Ditolyglguanidine (DTG) (1 nM) as the radioligand for σ2 receptors. Aliquots (50 μl) of radioligand were dispensed into the wells of a 96-well plate containing 100 μl of Standard Binding Buffer. Then, duplicate 50-μl aliquots of the test and reference compound dilutions were added. Finally, either crude membrane fractions prepared from rat brain homogenate for σ1 receptors or PC12 cell homogenates for σ2 receptors were added to the wells, and the plates shielded from light to prevent photolysis of light sensitive ligands.
For σ1 receptors, the reactions were incubated at 37° C. for 2.5 h, and for σ2 receptors, the reactions were incubated at room temperature for 2 h. Labeled receptors were harvested by rapid filtration on to Whatman GF/B glass filters pre-soaked with 0.3% polyethyleneimine using 96-well Brandel harvester. Four rapid 500 μl washes are performed with chilled Standard Binding buffer to reduce non-specific binding. Filters were placed in 6-ml scintillation tubes and allowed to dry overnight. EcoScint scintiallation cocktail (National Diagnostics) was added to each tube prior to counting. […] The filter mats were dried, the scintillate melted onto the filters and the radioactivity counted in a Microbeta scintillation counter.
Raw data (dpm) representing total radioligand binding (i.e., specific+nonspecific binding) were plotted as a function of the logarithm of the molar concentration of the competitor (i.e., test or reference compound).

VDAC2 = test: Western blot / densitometry, expression of VDAC2 in MA-10 cells; format: cell-based, mouse; conditions: increasing concentrations
Procedure: (§1) Mouse Leydig cell line (MA-10) was grown in Waymouth media containing 15% horse serum, 5% fetal bovine serum, and 1× gentamycin, which was replaced with 250 mg/ml G418 (geneticin) for VDAC1 knockdown (ΔVDAC1) MA10 cells. Cells were maintained at 37° C. in a humidified incubator under 5% CO2. To isolate mitochondria, cells were removed from tissue culture plates by gentle scrapping in phosphate-buffered saline at room temperature, incubated in hypotonic buffer (10 mM HEPES, pH 7.4) for 30 to 40 min, and mitochondria were isolated following readily available procedures. The mitochondrial preparation was verified by Western blotting with the cytochrome P450 SCC enzyme (Corgen, Tapai, Taiwan) and calnexin antibodies (Santa Cruz Biotechnology, Inc., Santa Cruz, Calif.).
(§2) Protein (12.5 μg) was separated by 15% SDS-polyacrylamide gel electrophoresis and transferred to a polyvinylidinedifluoride membrane (Millipore Corporation, Billerica, Mass.). The membrane was blocked with 3% nonfat dry milk for 45 min, probed overnight with the primary antibodies, and then incubated with […] goat anti-rabbit or anti mouse IgG (Thermo Fisher Scientific, Waltham, Mass.). Signals were developed with chemiluminescent reagent (Thermo Fisher Scientific). For loading control of all Western blots, the membrane was stained with β-actin antibody, which was previously independently stained with StAR or 3-β-hydroxysteroid dehydrogenase (3βHSD2) or VDAC1 and VDAC2 antiserum. The band intensity was determined by using Image Quant 5.2 (Phosphorimager; GE Healthcare, Chalfont St. Giles, Buckinghamshire, UK). Densitometric calculation may reflect the ratio of σ1 or VDAC2 and β-actin following an established procedure that is readily available.
(§3) In addition, VDAC2 antibody (FIG. 3E) was used to probe and was compared with β-actin expression (FIG. 3F) of the same membrane.

σ1 receptor = test: Western blot, expression of σ1 receptor in MA-10 cells; format: cell-based, mouse; conditions: 24 h, increasing concentrations
Procedure: as §1, with “Cells” for “Mouse Leydig cell line (MA-10) was grown in Waymouth media containing 15% horse serum, 5% fetal bovine serum, and 1× gentamycin, which was replaced with 250 mg/ml G418 (geneticin) for VDAC1 knockdown (ΔVDAC1) MA10 cells. Cells”
as §2, with “The” for “Protein (12.5 μg) was separated by 15% SDS-polyacrylamide gel electrophoresis and transferred to a polyvinylidinedifluoride membrane (Millipore Corporation, Billerica, Mass.). The”
as §3

5-HT2B = molecular target: T2, 5-HT2B (Homo sapiens, UniProt P41595); test: Primary binding assay at non-sigma receptors: 5-HT2B; conditions: read-out: % Inhibition 5-HT2B
T2 construct: expressed in transfected cells
T2 sequence (P41595 whole entry, species assumed): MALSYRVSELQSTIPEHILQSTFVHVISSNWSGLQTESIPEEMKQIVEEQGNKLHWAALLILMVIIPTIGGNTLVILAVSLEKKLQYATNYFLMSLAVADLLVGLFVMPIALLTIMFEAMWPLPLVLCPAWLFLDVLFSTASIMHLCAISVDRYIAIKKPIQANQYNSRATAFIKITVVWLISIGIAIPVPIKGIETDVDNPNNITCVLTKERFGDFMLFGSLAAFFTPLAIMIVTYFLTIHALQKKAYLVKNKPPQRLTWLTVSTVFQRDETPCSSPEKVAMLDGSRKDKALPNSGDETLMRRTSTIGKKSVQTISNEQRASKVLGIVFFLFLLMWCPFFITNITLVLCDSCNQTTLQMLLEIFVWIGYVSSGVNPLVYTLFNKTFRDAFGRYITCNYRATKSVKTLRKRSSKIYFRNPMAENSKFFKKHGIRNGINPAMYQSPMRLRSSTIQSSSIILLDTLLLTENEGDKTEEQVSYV
Procedure: (§4) Initial primary binding screening assays were performed using a 50 μM (initial)−10 μM (final) assay concentration of reference and test compounds.

Alpha2C = molecular target: T3, Alpha2C (Homo sapiens, UniProt P18825); test: Primary binding assay at non-sigma receptors: Alpha2C; conditions: 10 μM (final) assay concentration
T3 construct: expressed in transfected cells
T3 sequence (P18825 1-462): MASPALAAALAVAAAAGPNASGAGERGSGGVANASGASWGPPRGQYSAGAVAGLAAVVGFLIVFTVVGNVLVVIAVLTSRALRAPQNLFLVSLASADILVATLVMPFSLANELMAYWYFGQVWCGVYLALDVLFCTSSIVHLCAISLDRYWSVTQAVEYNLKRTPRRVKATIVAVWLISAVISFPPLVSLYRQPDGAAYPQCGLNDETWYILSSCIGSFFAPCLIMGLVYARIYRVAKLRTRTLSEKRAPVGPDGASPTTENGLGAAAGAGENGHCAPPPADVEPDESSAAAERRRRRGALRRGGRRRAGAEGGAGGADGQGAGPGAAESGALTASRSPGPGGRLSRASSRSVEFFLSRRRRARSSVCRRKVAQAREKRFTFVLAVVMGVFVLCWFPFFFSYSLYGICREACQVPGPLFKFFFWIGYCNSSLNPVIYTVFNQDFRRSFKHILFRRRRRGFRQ
Procedure: as §4

[1] = system: mitochondria from steroidogenic MA-10 cells; test: Metabolic conversion of [3H]pregnenolone to progesterone in isolated MA-10 mitochondria; format: biochemical, mouse
Procedure: as §1
To measure the conversion of [^3H]pregnenolone to [^3H]progesterone, isolated mitochondria from steroidogenic MA-10 cells (300 μg) were incubated in phosphate buffer along with the substrate, and the reaction was initiated by the NAD. For metabolic conversion of [^14C]cholesterol to pregnenolone, the reaction was initiated by the addition of NADPH, and for complete conversion we used 5-fold excess of cold carrier to reach the saturation point. The steroids were extracted with ether/acetone (9:1 v/v), and equal amounts of a cold pregnenolone-progesterone (50:50; Sigma, St. Louis, Mo.) mixture in CH2C12 was added as a carrier. The extracts were concentrated under a stream of nitrogen or air and then separated by thin-layer chromatography (TLC) (Whatman, Clifton, N.J.) using a chloroform/ethyl acetate (3:1) mobile phase.
Given the potential role of σ1 in steroidogenesis (FIG. 4A), we performed conversion assays in the presence of three sigma receptor ligands. […] The possibility exists that the σ1 receptor transiently interacts with the OMM-associated porins. As such, the increased levels of σ1 receptor with KSCM-11 may enhance the transport of substrate cholesterol into the mitochondria, thereby increasing progesterone synthesis.

3βHSD2 = test: Western blot, expression of 3βHSD2 in MA-10 cells; format: cell-based, mouse; conditions: any concentration
Procedure: as §1, §2, §3

[2] = higher concentrations than 10 nM

| SMILES | Ki (σ2 receptor) [nM] | expression of VDAC2 (in words) (VDAC2) | expression of the σ1 receptor (in words) (σ1 receptor) | inhibition at 10 µM (5-HT2B) [%] | inhibition at 10 µM (Alpha2C) [%] | effect on progesterone conversion (in words) [1, 2] | level of 3βHSD2 (in words) (3βHSD2) | inhibition at 10 µM (5-HT2B; primary binding assay, 10 μM (final) assay concentration) [%] | effect on progesterone conversion (in words) ([1]; 10 nM) |
| --- | --- | --- | --- | --- | --- | --- | --- | --- | --- |
| COc1cc2oc(C(=O)N(CCCN3CCCCC3)c3ccccc3)c(C)c2cc1OC [KSCM-1, 5,6-Dimethoxy-3-methyl-N-phenyl-N-(3-(piperidin-1-yl)propyl)benzofuran-2-carboxamide] | 528 | increased with increasing concentrations | increased expression; also recorded: increased with increasing concentrations | 43.8 | 78.9 | reduced conversion to the basal level | no change |  |  |
| Cc1c(C(=O)N(CCCN2CCCCC2)c2ccccc2)oc2ccccc12 [KSCM-5, 3-Methyl-N-phenyl-N-(3-(piperidin-1-yl)propyl)benzofuran-2-carboxamide] | 16 | decreased with increasing concentrations | increased only minimally; also recorded: remained unchanged |  | 61.9 | conversion decreased significantly | no change | 69.2 | no effect |
| COc1ccc2c(C)c(C(=O)N(CCCN3CCCCC3)c3ccccc3)oc2c1 [KSCM-11, 6-Methoxy-3-methyl-N-phenyl-N-(3-(piperidin-1-yl)propyl)benzofuran-2-carboxamide] | 41 | decreased with increasing concentrations | increased expression; also recorded: moderately increased | 93.9 | 49 | conversion decreased significantly | no change |  | no effect |
